Data on two substances can be found in ChEMBL document CHEMBL5537162, “Development of Antibacterial Peptides with Membrane Disruption and Folate Pathway Inhibitory Activities against Methicillin-Resistant Staphylococcus aureus” (J Med Chem, 2024).

The term IC50 denotes the concentration at which inhibition is half-maximal. As a reminder, the MIC is the lowest concentration that inhibits growth of the organism. As usually defined, the Kd is the equilibrium constant for the complex coming apart.

The source made the active and inactive calls. No cut-off for these calls is given here.

Series [1] concerns Staphylococcus aureus. Kind of series: Antibacterial activity against Staphylococcus aureus assessed as reduction in bacterial growth in presence of PABA. The format is functional, organism-based.
A short description of series [2]: Stability in methicillin-resistant Staphylococcus aureus supernatants measured for 24 hrs by RP-HPLC analysis. It counts as physicochemical.
Series [3] deals with Staphylococcus aureus. Briefly: Drug resistance, ratio of MIC for methicillin-resistant Staphylococcus aureus after 7 days exposure to MIC for methicillin-resistant Staphylococcus aureus during first exposure. To be noted: time 7 day. The format is functional.
Series [4] concerns Cell membrane. Kind of series: Disruption of membrane integrity in methicillin-resistant Staphylococcus aureus measured for 6 hrs by scanning electron microscopic analysis. The format is cell membranes.
Series [5] in a line: Antiproliferative activity against HEK293T cells assessed as reduction in cell viability measured for 48 hrs by MTT assay. The format is toxicity, cell-based, HEK-293T. To be noted: human. In general terms: Tetrazolium assays rely on reduction of a dye to a coloured formazan, in cell work by metabolically active cells.
Series [6] deals with Staphylococcus aureus. Kind of series: Antibacterial activity against methicillin-resistant Staphylococcus aureus 19498 assessed as bacterial growth inhibition incubated for 24 hrs by CLSI based micro-broth dilution assay. It counts as functional. (In general: Broth dilution looks for growth in wells or tubes with falling amounts of substance.)
Series [7] has as its target T1, Monofunctional C1-tetrahydrofolate synthase, mitochondrial (Homo sapiens, UniProt Q6UB35).
T1 sequence (Q6UB35 whole entry): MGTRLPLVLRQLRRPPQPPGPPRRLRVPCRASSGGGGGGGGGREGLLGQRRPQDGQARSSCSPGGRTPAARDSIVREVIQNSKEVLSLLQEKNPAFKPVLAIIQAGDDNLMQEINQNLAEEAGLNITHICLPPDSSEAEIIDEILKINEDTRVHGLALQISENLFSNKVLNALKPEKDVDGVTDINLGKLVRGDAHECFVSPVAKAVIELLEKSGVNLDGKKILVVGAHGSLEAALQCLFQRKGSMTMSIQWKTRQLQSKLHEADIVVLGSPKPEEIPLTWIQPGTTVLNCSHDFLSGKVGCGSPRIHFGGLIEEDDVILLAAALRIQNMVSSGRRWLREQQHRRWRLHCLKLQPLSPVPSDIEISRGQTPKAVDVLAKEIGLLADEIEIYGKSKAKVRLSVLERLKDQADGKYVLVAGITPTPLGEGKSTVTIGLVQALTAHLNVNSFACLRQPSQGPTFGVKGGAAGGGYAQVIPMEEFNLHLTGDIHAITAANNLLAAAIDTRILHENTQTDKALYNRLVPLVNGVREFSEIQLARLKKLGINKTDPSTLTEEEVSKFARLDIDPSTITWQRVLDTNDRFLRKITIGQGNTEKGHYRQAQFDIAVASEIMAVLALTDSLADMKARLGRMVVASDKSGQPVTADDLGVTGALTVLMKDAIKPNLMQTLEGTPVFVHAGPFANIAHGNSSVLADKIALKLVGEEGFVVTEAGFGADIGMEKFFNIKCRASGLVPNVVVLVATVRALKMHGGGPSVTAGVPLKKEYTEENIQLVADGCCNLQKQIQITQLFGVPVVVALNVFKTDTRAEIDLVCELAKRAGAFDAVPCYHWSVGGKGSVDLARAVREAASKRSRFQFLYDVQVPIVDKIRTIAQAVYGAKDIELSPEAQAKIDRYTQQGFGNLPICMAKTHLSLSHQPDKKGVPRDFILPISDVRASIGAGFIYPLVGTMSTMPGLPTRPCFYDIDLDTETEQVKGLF
Briefly: Binding affinity to FTHFS (unknown origin) expressed in Escherichia coli BL21 (DE3) using IPTG as […] assessed as dissociation constant by MST assay.

A short description of series [8]: Hemolytic activity in mouse RBC assessed as hemolysis at 320 uM incubated for 1 hrs by spectrophotometric analysis relative to control. It counts as toxicity, cell-based, Erythrocyte. The conditions noted are these: mouse red blood cells (erythrocytes), read-out: %max.
The subject of series [9] is Pseudomonas aeruginosa. Briefly: Antibacterial activity against Pseudomonas aeruginosa assessed as bacterial growth inhibition incubated for 24 hrs by CLSI based micro-broth dilution assay. It counts as functional.
The nature of series [10]: Stability in mouse blood plasma measured for 24 hrs by RP-HPLC analysis. The format is ADME, cell-free.
In series [11] the test system is Staphylococcus aureus. Briefly: Antibacterial activity against methicillin-resistant Staphylococcus aureus assessed as fold reduction in viable bacteria at 8 times MIC measured at 3 to 6 hrs by time-kill assay. To be noted: time 3-6 hrs. The format is functional, organism-based.
Series [12] has as its system Staphylococcus aureus. Kind of series: Drug resistance, ratio of MIC for methicillin-resistant Staphylococcus aureus after 3 days exposure to MIC for methicillin-resistant Staphylococcus aureus during first exposure. The conditions noted are these: time 3 day. The format is functional.
Series [13] deals with Staphylococcus aureus. Kind of series: Antibacterial activity against methicillin-resistant Staphylococcus aureus 19423 assessed as bacterial growth inhibition incubated for 24 hrs by CLSI based micro-broth dilution assay. The format is functional.

Take H-LARVARRVIRFIRRAW-NH2: the outcome in [1], in series [4] and in series [11] was Active. Moreover, the Stability entry in [2] was “Stable”; in series [10], “Unstable”. The Ratio was 100 in series [3] and 50 in series [12]. In addition, the IC50 at 48 h in series [5] is greater than 320 µM. The MIC in series [6] was 6 µM; in series [9] it was greater than 48 µM; in [13] it was 6 µM. The Kd in series [7] worked out at 2.24 µM. For the same substance, the hemolysis at 1 h, 320 µM in series [8] is 8.58%.

In the case of H-RRRLARRLIFFIRRAW-NH2, the outcome in [1], in [4] and in series [11] was Active. In addition, the Stability result is “Stable” in series [2] and “Unstable” in series [10]. Besides, the figures for the Ratio in series [3] and in series [12] were 100 and 50, respectively. The IC50 at 48 h in [5] is greater than 320 µM. The MIC was 3 µM in series [6], greater than 48 µM in series [9] and 6 µM in [13]. Moreover, in [7], the Kd came to 3.68 µM. In addition, the hemolysis at 1 h, 320 µM in series [8] is 8.97%.
